Reference: patent US20210079035A1, “COMPOUNDS FOR TREATING NEURODEGENERATIVE DISORDERS” (ETHNODYNE, priority 2017, published 2021)
Entries after “also recorded” stand apart in the source; their conditions may differ.

Assays:
[1] = system: primary rat dopaminergic neurons (TH positive neurons); assay: Neuroprotection after MPP+ exposure, TH immunostaining; type: cell-based; details: for neuroprotective effect on TH positive neurons: 1 pmol/L to 10 μmol/L
Description: This study investigated the neuroprotective effect of the Compound CR777B of example 1 on rat primary mesencephalic cultures following exposure to 1-methyl-4-phenyl pyridinium (MPP^+).
Rat dopaminergic neurons were cultured as described by Visanji et al., 2008 FASEB J. 2008; 22(7):2488-97. Briefly, the midbrains obtained from 15-day old rat embryos (Janvier Labs, France) were dissected under a microscope. The embryonic midbrains were removed and placed in ice-cold medium of Leibovitz (L15, Batch 4290114, Pan Biotech, Germany) containing 2% of Penicillin-Streptomycin (PS, Batch 1451013, Pan Biotech) and 1% of bovine serum albumin (BSA, Batch K030913, Pan Biotech). The ventral portion of the mesencephalic flexure, a region of the developing brain rich in dopaminergic neurons, was used for the cell preparations.
The midbrains were dissociated by trypsinisation for 20 min at 37° C. […] The cells were seeded in supplemented neurobasal medium at a density of 40 000 cells/well in 96 well-plates pre-coated with poly-L-lysine (Batch 3102256, Corning Biocoat) and maintained in a humidified incubator at 37° C. in 5% CO2/95% air atmosphere. Half of the medium was changed every 2 days with fresh medium.
On day 6 of culture, the medium was removed and fresh medium was added, without or with MPP+ at 4 μM diluted in control medium and let for 48 h. In parallel, compound CR777B and withaferin A were solved in culture medium and then pre-incubated with mesencephalic neurons 1 hour before the MPP+ application (48 h).
48 hours after intoxication, the cell culture supernatant was taken off and the dopaminergic neurons were fixed by a solution of 4% paraformaldehyde in PBS, pH=7.3 for 20 min at room temperature.
After permeabilization with 0.1% of saponin (Merck, France), cells were incubated for 2 hours with monoclonal Anti-Tyrosine Hydroxylase (TH) antibody produced in mouse at dilution of 1/10000 in PBS containing 1% FCS, 0.1% saponin, for 2 h at room temperature.
The immunolabeled cultures were automatically examined with ImageXpress (Molecular Devices, United Kingdom) equipped with a LED at ×10 magnification. […] All images were taken with the same conditions. Analysis were automatically performed by using Custom Module Editor (Molecular Devices).
Data were expressed in percentage of control conditions (no injury, no compound=100%). All values were expressed as mean+/−SEM (standard error mean) of the 6 wells with statistical analyses on the different conditions (ANOVA followed by Dunnett's test when allowed, using GraphPad Prism software).

[2] = system: primary rat cortical neurons; assay: Neuron survival and neurite network after glutamate injury, MAP-2 immunostaining
[3] = system: primary motor neuron culture from rat spinal cord; assay: Motor neuron survival after glutamate exposure (in vitro ALS model), MAP-2 immunostaining; type: cell-based; details: for protective effect on motor neurons: 1 pM to 10 μM
Description: The aim of this study was to study the effect of CR777B on primary motor neuron culture from rat spinal cord (SC) injured by glutamate exposure (a well validated in vitro ALS model and model of motor neuron diseases).
Rat SC motor neurons were cultured as described by Martinou et al., Neuron. […] Briefly, pregnant female rats (Wistar, Janvier labs) of 14 days gestation were killed by cervical dislocation. […] The medium was changed every day.
For each condition, 6 wells were assessed, 30 pictures per well were taken using ImageXpress (Molecular Devices) with 20× magnification, to assess motor neuron survival (MAP-2). Analysis of picture was done using Custom Module Editor (Molecular Devices). Results were expressed in terms of mean survival neuron, labeled for MAP-2. Data were expressed in percentage of control conditions (no intoxication, no glutamate=100%) in order to express the glutamate injury. All values were expressed as mean+/−SEM (s.e.mean) of the culture (n=6 wells per condition per culture). Graphs and statistical analyses are made on the different conditions (ANOVA followed by PLSD Fisher's test when allowed, using Statview software version 5.0).

[4] = system: primary cocultures of central neurons and oligodendrocytes; assay: In vitro myelination (MS) model, A2B5 and MAG immunostaining; type: cell-based, rat; details: for conclusion: effect on OPC and OL: 1 pmol/L to 10 μmol/L
Description: A reproducible in vitro myelination model based on primary cocultures of central neurons and oligodendrocytes culturing in 96-well plate is used and adapted to high throughput screening.
Neurons/oligodendrocytes were cultured as previously described by Charles et al., 2000. PNAS 97 7585-7590.
Briefly, pregnant Wistar female rats of 17 days gestation were killed by cervical dislocation (Janvier Labs, France) and the foetuses removed from the uterus. The forebrains were removed and placed in ice-cold medium of Leibovitz (L15; Pan Biotech, Germany) containing 2% of Penicillin-Streptomycin (Batch 1451013, PanBiotech) and 1% of bovine serum albumin (BSA) (Batch K180713, Pan Biotech). Cortexes were dissociated by trypsinisation for 20 min at 37° C., with Trypsin EDTA 1× (Batch 7310713, PanBiotech). The reaction was stopped by the addition of Dulbecco's modified Eagle's medium (DMEM) (Batch 9710913, PanBiotech) containing DNAase I grade II at 0.1 mg/mL (Batch H131108, PanBiotech) and 10% of foetal calf serum (Batch 41Q7218K, Invitrogen, France). Cells were then mechanically dissociated by 3 passages through a 10 mL pipette. Cells were centrifuged at 180×g for 10 min at 4° C. temperature on a layer of BSA (3.5%) in L15 medium. The supernatant was discarded and cells of the pellet were re-suspended in DMEM containing 10% of FCS. […] The supernatant was discarded and cells of pellet were re-suspended in a culture medium consisting of Neurobasal (Batch 1625353, Invitrogen) supplemented with 2% of B27 (Batch 1618508, Invitrogen), 2 mM of L-glutamine (Batch 6620314, PanBiotech), 2% of PS solution, 1% of foetal calf serum (FCS) and 10 ng/mL of platelet-derived growth factor (PDGF-AA) (Batch H131205, PanBiotech).
The plates were maintained at 37° C. in a humidified incubator, in an atmosphere of air (95%)-CO2 (5%). Half of the medium was changed every 2 days with fresh medium in presence or absence of compound.
The cells were then permeabilized and non-specific sites were blocked with a solution of phosphate buffered saline (Batch 3010914, PanBiotech) containing 0.1% of saponin (Batch BCBJ8417V, Sigma) and 1% FCS for 15 min at room temperature.
On day 12, cells were incubated with Monoclonal Anti-A2B5 conjugated Alexa Fluor® 488 produced in mouse (Batch 2281669, Millipore, France) at dilution of 1/200 in PBS containing 1% FCS, 0.1% saponin, and with anti-MAP-2 antibody produced in chicken (Batch GR180541-3, AbCam; United Kingdom) at dilution of 1/1000 in PBS containing 1% FCS, 0.1% saponin for 2 h at room temperature.
On day 18, cells were incubated with Monoclonal Anti-MAG antibody produced in mouse (Batch 2301638, Millipore) at dilution of 1/400 in PBS containing 1% FCS, 0.1% saponin, and with anti-MAP-2 antibody produced in chicken at dilution of 1/1000 in PBS containing 1% FCS, 0.1% saponin for 2 h at room temperature.
The immunolabeled cultures were automatically examined with ImageXpress (Molecular Devices) equipped with a LED at ×20 magnification. For each condition, 30 pictures (representing ˜80% of the total surface of the well) per well were taken. All images were taken with the same conditions. Number of A2B5 positive cells and number of MAG positive cells were automatically analyzed by using Custom module editor (Molecular Devices). Data were expressed in percentage of control conditions (no plant extract=100%). All values were expressed as mean+/−SEM (s.e.mean) of the 6 wells. Graphs and statistical analyses are made on the different conditions (ANOVA followed by Dunnett's test when allowed, using GraphPad Prism software).

[5] = system: human HCT-116 colorectal carcinoma; assay: Cell growth inhibition by MTS assay (cytotoxicity); type: cell-based; details: for IC50: Homo sapiens, HCT-116, MTS assay, 72 h of incubation, triplicate, read-out: IC50 mM HCT116
Description: (§1) Human MRC-5 cell line derived from normal lung tissue and human HCT-116 colorectal carcinoma were obtained from the American Type Culture Collection (ATCC, Rockville, Md.). Cell lines were cultured according to the supplier's instructions. Human HCT-116 cells were grown in Gibco McCoy's 5A supplemented with 10% fetal calf serum (FCS) and 1% glutamine. Human MRC-5 cells were grown in DMEM supplemented with 10% fetal calf serum (FCS) and 1% glutamine.
(§2) Cells were counted using a Vi-cell XR (Beckman Coulter) and their viability assessed by 0.25% trypan blue dye exclusion. They were tested for the presence of mycoplasma before experiments with the Mycoplasma PCR Detection Kit (Applied Biological Materials Inc., Canada) in accordance with the manufacturer instructions and only mycoplasma-free cells were used for further investigations.
(§3) Cell lines were maintained at 37° C. in a humidified atmosphere containing 5% CO2. Cell growth inhibition was determined by an MTS assay according to the manufacturer's instructions (Promega, Madison, Wis., USA). […] After 24 h of culture, the cells were treated with the compound CR777B of example 1 or with the withaferine at 8 different final concentrations. Each concentration was obtained from serial dilutions in culture medium starting from the stock solution. Control cells were treated with the vehicle. Experiments were performed in triplicate.
(§4) After 72 h of incubation, 20 μL of CellTiter 96® AQueous One Solution Reagent was added for 2 h before recording absorbance at 490 nm with a spectrophotometric plate reader. The dose-response curves were plotted with Graph Prism software and the IC50 values were calculated using the Graph Prism software from polynomial curves (four or five-parameter logistic equations).

[6] = system: Human MRC-5 cell line derived from normal lung tissue; assay: Cell growth inhibition by MTS assay (cytotoxicity); type: cell-based; details: MRC5, 72 h of incubation, triplicate
Description: as §1, §2, §3, §4

[7] = added 1 h before glutamate (40 μM, 20 min) and let for 48 h
[8] = added 1 h before glutamate (5 μM, 20 min)
[9] = added 1 h before MPP+ (4 μM) and let for 48 h
[10] = after 12 or 18 days of incubation

Q: For `C[n+]1ccc(-c2ccccc2)cc1` [MPP+, 1-methyl-4-phenyl pyridinium], which “TH positive neuron cell death” value ([1]; MPP+ 4 μM, 48 h) is on record?
A: > 35%

Q: Which “neuronal death and neurite network loss” value ([2]; glutamate 40 μM, 20 min) does the source give for `N[C@@H](CCC(=O)O)C(=O)O` [Glutamate, glutamate] here?
A: significant neuronal death and neurite network loss

Q: What about the motor neuron death ([3]; glutamate 5 μM for 20 min) of the same compound?
A: > 30%

Q: Which results are given for `CC1=C(CO)C(=O)O[C@@H]([C@@H](C)[C@H]2CCC3C4C[C@H]5O[C@]56[C@@H](O)C(SC[C@H](NC(=O)CC[C@@H](N)C(=O)O)C(=O)NCC(=O)O)CC(=O)[C@]6(C)C4CC[C@@]32C)C1` (some centres unmarked) [CR777B]?
A: conclusion: effect on OPC and OL [4]: significantly increase the number of OPC and OL; OPC number (A2B5 positive cells) ([4]; after 12 days of incubation): significant increase of OPC; concentration of maximal effect on OPC number (bell shape curve) ([4]; after 12 days of incubation): 100 pM; total number of OPCs at the highest doses ([4]; after 12 days of incubation, highest doses): decrease of the total number of OPCs; myelination of neurons by OL (MAG expression) ([4]; after 18 days of treatment): significantly improved the myelination of neurons by OL; number of MAG positive cells (OL) ([4]; after 18 days of treatment): increase the number of MAG positive cells; concentration with toxicity on neurite network [2, 7]: 10 µM; MN protective effect at the 2 highest doses ([3]; 2 highest doses (1 and 10 μM), glutamate 5 μM, 20 min): inactive; concentration of maximal MN protective effect (bell shape curve) ([3]; added 1 h before glutamate (5 μM, 20 min), then 48 h): 100 nM; protective effect on motor neurons [3, 8]: significant protective effect at all doses (except at the 2 highest doses); concentrations with toxic effect on TH positive neurons [1, 9]: 10 µM; neuroprotective effect on TH positive neurons [1, 9]: significant protective effect (neuron survival and preservation of neurite network) at all doses (except at the highest dose); IC50 [5]: 0.00266 mM; toxicity on the cells compared with withaferin ([5]; whatever the cell line tested (HCT116 and MRC5)): less toxic than the compound withaferin; IC50 [6]: 0.0036 mM

Q: With `CC1=C(CO)C(=O)O[C@@H]([C@@H](C)[C@H]2CC[C@H]3[C@@H]4C[C@H]5O[C@]56[C@@H](O)C=CC(=O)[C@]6(C)[C@H]4CC[C@]23C)C1` [Withaferin A, (4β,5β,6β,22R)-4,27-Dihydroxy-5,6:22,26-diepoxyergosta-2,24-diene-1,26-dione] as the compound, how does the “conclusion: effect on OPC and OL” value [4] read?
A: toxic for OPC and OL at all doses

Q: What about the “number of OL” value [4, 10] of the same compound?
A: significant decrease of the number of OL

Q: And the “toxicity / OPC proliferation” value [4, 10]?
A: large toxic and/or inhibition of the OPC proliferation

Q: And the “protection of neurons from death” value [2, 7]?
A: did not protect neurons from death

Q: And the “toxicity for MN” value ([3]; MN injured by glutamate (5 μM, 20 min))?
A: toxic for MN injured by glutamate

Q: What about the “protective effect on motor neurons” value [3, 8] of the same compound?
A: did not show a protective effect; also recorded: did not show any neuroprotective effect

Q: And the “toxicity for TH positive neurons” value ([1]; MPP+ 4 μM, 48 h, highest doses)?
A: toxic for TH positive neurons at the highest doses

Q: What about the “neuroprotective effect on TH positive neurons” value [1, 9] of the same compound?
A: did not show any neuroprotective effect

Q: What about the “neuroprotective effect on TH positive neurons” value ([1]; added 1 h before MPP+ (4 μM) and let for 48 h, listed as withaferin A) of the same compound?
A: did not show any effect

Q: What about the IC50 [5] of the same compound?
A: 0.00037 mM

Q: What about the IC50 [6] of the same compound?
A: 0.00025 mM
